System: leukemic blasts from patients (AML or CML in blast crisis)
Experiment: proliferation of patient leukemic blasts
Assay type: cell-based
Conditions: Homo sapiens
Description: Cell Growth: IL-3-transfected M07e cells have been described by Thacker, D. J., et al., Leukemia 8: 871-877 (1994). Cells were grown in RPMI supplemented with 5 percent heat-inactivated fetal bovine serum (FBS) and 25 μg/ml gentamycin in a […], 5% CO2, and 100% humidity environment. Leukemic cells were obtained from patients who met the criteria for the diagnosis of AML or CML in blast crisis (see Table 1). Studies were approved by the Wayne State University Institutional Review Board. Informed consent was obtained from all patients. Leukemic blasts from patients were isolated using Ficoll hypaque. Cells at the interface between plasma and red blood cells were diluted with sterile PBS, then layered over Ficoll hypaque (1.077 density), and the leukemic cells collected at the interface. The sample to be studied represented greater than 90% blasts. The patient leukemia samples were grown in RPMI medium supplemented with 10% FBS, gentamycin (25 μg/ml), IL-3 (20 ng/ml), SCF (25 ng/ml), GM-CSF (20 ng/ml) and G-CSF (20 ng/ml). Cell growth was assessed using a cell proliferation kit.

## O=C(O)/C=C/c1ccc(-c2ccc(O)c(C34CC5CC(CC(C5)C3)C4)c2)c(Cl)c1 [Example 3-Cl-AHPC, (E)-4-[3-(1-Adamantyl)-4-hydroxyphenyl]-3-chlorocinnamic acid]
  inhibition at 1 µM: 60 to 90%

Reference: patent USRE42700E1, “Induction of apoptosis in cancer cells” (Sanford-Burnham Medical Research Institute, priority 2001, dated 2011)
